Laboratory results published in US20240207263A1, “SELECTIVE MODULATORS OF ATAXIA TELA[…] (ATM) KINASE AND USES THEREOF” (priority 2021, published 2024).
Where two headings read alike, the source gives them in different places.

What was measured:
FaDu xenograft = FaDu xenograft model, radiation combination (Assay i); format: in vivo, mouse; conditions: for Inhibition (% TGI) Combo: combo with IR; for tumor response in FaDu xenograft efficacy study: oral compound in combination with IR (2 Gy per day, 5 days per cycle)
Procedure: Assay i): FaDu Xenograft Model
Cell culture: FaDu tumor cells were cultured in an EMEM medium containing inactivated 10% fetal bovine serum, 100 U/ml penicillin and 100 μg/ml streptomycin in a 37° C., 5% CO2 incubator.
Inoculation and grouping: Xenografts were established by implantation of 100 μl of Fadu tumor cell suspension (5×10^6 cells/mouse) subcutaneously into the right flank of female immune-compromised BALB/c nude mice at least 6 weeks of age. Tumours were measured in two dimensions with calipers and the tumour volume was calculated using the following formula: tumor volume=(length×width^2)×0.5. When the average tumor volume reached 100 to 150 mm^3, tumour-bearing mice were randomized into treatment groups.
Treatment and tumor assessment: Animals received 3 to 6 cycles of treatment with compounds combined with radiation therapy. Each cycle included 5 consecutive treatment day plus 2 days' rest. Ionizing radiation was administered using a fractionated schedule of 2 Gy per day administered over 5 consecutive days (total radiation dose=10 Gy/cycle). Compound was given orally 10 minutes before irradiation. The tumour volume and body weight of the mice were measured twice weekly.
Statistical Analysis: The One-Way ANOVA test was used for statistical analysis of tumor volume between groups, and p<0.05 was considered as a significant difference.

ATM = ATM (Homo sapiens (Human), UniProt Q13315); assay: biochemical; format: biochemical; conditions: read-out: ATM IC50
Sequence of ATM (Q13315 whole entry, looked up): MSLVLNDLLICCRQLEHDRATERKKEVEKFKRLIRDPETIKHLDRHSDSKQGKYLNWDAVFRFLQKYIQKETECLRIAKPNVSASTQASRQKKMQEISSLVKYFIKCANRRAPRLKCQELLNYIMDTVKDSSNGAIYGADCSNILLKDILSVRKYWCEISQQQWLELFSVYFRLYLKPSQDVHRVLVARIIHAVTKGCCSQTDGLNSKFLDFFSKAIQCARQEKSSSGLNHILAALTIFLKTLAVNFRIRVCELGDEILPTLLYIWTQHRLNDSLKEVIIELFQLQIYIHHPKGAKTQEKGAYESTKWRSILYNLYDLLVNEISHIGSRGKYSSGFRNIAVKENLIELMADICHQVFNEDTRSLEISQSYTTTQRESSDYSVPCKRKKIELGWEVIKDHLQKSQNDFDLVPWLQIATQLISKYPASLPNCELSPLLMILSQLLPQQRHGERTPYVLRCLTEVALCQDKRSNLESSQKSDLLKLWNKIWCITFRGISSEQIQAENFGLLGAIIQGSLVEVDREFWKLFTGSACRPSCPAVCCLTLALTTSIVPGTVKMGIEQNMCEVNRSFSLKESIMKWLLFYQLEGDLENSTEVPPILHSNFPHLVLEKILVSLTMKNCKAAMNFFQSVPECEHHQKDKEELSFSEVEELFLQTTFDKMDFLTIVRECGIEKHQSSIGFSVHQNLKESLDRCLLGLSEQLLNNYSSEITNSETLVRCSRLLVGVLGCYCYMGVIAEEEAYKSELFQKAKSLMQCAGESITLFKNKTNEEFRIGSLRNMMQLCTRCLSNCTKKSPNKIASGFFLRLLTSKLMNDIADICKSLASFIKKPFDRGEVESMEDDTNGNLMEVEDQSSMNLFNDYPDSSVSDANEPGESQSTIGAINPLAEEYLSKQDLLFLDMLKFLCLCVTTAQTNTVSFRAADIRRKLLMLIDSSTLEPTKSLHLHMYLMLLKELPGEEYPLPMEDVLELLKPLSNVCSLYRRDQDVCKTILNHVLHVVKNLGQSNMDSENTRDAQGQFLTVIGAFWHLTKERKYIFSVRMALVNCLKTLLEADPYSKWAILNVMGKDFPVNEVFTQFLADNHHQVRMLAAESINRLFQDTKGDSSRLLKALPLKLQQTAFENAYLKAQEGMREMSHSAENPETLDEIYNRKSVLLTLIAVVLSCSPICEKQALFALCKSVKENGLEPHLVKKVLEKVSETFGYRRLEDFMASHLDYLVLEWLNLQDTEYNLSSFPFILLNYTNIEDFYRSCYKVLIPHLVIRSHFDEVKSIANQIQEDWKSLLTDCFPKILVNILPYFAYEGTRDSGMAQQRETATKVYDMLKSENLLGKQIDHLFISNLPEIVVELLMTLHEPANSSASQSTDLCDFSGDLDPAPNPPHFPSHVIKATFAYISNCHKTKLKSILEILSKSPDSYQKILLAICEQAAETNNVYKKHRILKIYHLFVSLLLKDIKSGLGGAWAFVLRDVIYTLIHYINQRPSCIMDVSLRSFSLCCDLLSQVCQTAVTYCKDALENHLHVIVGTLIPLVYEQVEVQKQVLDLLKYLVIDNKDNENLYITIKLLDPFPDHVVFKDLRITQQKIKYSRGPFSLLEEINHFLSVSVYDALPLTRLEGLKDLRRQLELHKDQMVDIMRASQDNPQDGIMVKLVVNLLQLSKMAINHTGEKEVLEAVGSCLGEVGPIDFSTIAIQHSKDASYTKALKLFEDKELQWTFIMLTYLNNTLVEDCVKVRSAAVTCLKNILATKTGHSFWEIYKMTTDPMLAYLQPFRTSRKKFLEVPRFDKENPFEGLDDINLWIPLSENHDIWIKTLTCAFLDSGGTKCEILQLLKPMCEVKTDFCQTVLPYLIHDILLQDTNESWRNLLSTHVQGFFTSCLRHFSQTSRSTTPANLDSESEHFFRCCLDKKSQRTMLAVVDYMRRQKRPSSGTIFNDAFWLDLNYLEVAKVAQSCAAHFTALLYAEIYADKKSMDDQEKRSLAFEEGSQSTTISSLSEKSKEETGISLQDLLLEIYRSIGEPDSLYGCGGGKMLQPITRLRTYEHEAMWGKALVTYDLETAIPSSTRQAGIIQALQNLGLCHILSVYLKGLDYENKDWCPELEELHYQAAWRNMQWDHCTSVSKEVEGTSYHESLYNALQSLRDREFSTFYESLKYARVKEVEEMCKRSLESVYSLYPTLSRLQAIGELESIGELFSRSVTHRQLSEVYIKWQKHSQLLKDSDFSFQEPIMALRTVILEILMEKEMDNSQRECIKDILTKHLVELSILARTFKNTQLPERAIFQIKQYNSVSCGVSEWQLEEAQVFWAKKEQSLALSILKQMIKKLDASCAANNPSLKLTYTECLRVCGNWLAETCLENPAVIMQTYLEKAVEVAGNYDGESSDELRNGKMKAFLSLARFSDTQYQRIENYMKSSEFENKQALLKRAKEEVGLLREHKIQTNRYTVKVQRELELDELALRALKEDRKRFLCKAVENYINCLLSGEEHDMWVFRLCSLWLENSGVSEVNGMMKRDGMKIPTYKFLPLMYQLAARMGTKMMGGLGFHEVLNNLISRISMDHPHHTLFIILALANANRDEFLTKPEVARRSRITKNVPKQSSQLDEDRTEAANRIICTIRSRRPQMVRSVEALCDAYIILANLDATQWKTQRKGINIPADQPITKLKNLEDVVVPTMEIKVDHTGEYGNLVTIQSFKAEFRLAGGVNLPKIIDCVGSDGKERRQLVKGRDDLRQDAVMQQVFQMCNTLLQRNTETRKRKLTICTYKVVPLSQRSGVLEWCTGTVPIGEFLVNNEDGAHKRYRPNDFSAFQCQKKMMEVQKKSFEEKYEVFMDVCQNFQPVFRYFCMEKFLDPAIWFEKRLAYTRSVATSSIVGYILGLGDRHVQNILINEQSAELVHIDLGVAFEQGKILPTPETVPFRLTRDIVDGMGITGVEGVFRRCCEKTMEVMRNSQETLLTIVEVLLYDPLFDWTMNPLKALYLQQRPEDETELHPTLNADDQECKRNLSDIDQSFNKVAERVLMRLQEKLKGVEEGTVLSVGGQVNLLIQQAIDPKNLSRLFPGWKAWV
Excerpt: Assay a): ATM Biochemical Potency
Data was collected by Caliper.

[1] = system: phosp-KAP1 in MCF-7 cells; assay: phosp-KAP1 MCF-7 cellular potency assay (Assay f); format: cell-based; conditions: Homo sapiens
Procedure: Assay f): phosp-KAP1 MCF-7 Cellular Potency
MCF-7 cells were seeded to a 384-well cell-culture plate, 25 μl/well which were incubated at 37° C. and 5% CO2 for 24 hr. Test compounds were added to the 384-well plates. Etoposide at final concentration of 100 μM was then added to each well except Vehicle control wells, which were incubated at 37° C. and 5% CO2 for 1 hour. After medium removal, cells were fixed by the addition of 25 μl/well of 8% paraformaldehyde in PBSA and incubated for 20 minutes at room temperature. After the plates were rinsed 3 times with PBSA, 50 ul permeabilization buffer (0.1% Triton X-100 in PBS) was added and the plates were incubated for 20 minutes at room temperature. After the plates were rinsed with PBSA, block the cells by adding 50 μl of Odyssey Blocking Buffer in 384-well plate and then incubate for 1.5 hours at room temperature. Remove blocking buffer by Plate washer (BioTek ELx405 select CW). […] The plates were rinsed 5 times with PBST (0.1% Tween-20 in PBS).
• 1) Fluorescence intensity (FI) was detected for each well. • 2) % inhibition is calculated as follow:
[formula] • FIpositive: The average FI for the positive controls across the plate. • FIvehicle: The average FI for negative controls across the plate. • 3) Calculate IC50 and Plot effect-dose curve of compounds: • Calculate IC50 by fitting % inhibition values and log of compound concentrations to nonlinear regression (dose response−variable slope) with Graphpad prism 6.0.
Y=Bottom+(Top−Bottom)/(1+10^((Log IC50−X)*HillSlope)) • X: log of compounds concentration; Y: % inhibition

[2] = biological target: ATM (phospho-ATM Ser1981) in SN38 treated HT-29 cells (Homo sapiens (Human), UniProt Q13315); assay: cell-based
Sequence of ATM (phospho-ATM Ser1981) in SN38 treated HT-29 cells (Q13315 whole entry, looked up): as above
Procedure: Assay g): ATM SN-38 HT-29 Cellular Potency
SN38 causes single strand DNA breaks (SSBs) which are converted to double strand breaks (DSBs) during replication. ATM plays role of repairing DSBs. Inhibition of ATM was evaluated in SN38 treated HT-29 cells (ATCC, Cat #HTB-38) by high-Content Imaging System
The graphical views were then generated using Prism 7.0 (Graphpad).

ATR = ATR (Homo sapiens (Human), UniProt Q13535); assay: ATR biochemical potency assay (Assay b)
Procedure: Assay b): ATR Biochemical Potency
The plate was incubated at room temperature for 10 minutes. 2× peptide solutions were prepared with FAM-labeled peptide and ATP in the 1× kinase base buffer. […] 40 μl of stop buffer was added to stop reaction. Data were collected by Caliper.

PIK3Cβ (p110β) = PIK3Cβ (p110β) (Homo sapiens (Human), UniProt P42338); assay: PI3K biochemical potency assay (Assay c), PIK3Cβ
Procedure: Assay c): PI3K Biochemical Potency
(§1) 2.5 μl of kinase solution was added to each well of the 384-well assay plate, which contains 2.5 μl of compounds with serially diluted concentration. 2× substrate solution was prepared with PIP2 substrate and ATP in 1× kinase reaction buffer at 2-fold of the final concentration of each reagent in the assay. 5 μl of substrate solution was added to each well of the assay plate to start reaction. The assay plate was incubated at room temperature for 1 hour. 5 μl reaction mix was transferred to a new 384 well plate. 5 μl of ADP-Glo reagent (Promega, Cat. No. v9102/3) was added to each well of the new assay plate to stop the reaction. The plate was shaken slowly and equilibrated for 40 minutes. 10 μl kinase detection reagents were added to each well, which was equilibrated for 60 minutes before read on a plate reader (Envision) for luminescence.

PIK3Cγ (pp110γ) = PIK3Cγ (pp110γ) (Homo sapiens (Human), UniProt P48736); assay: PI3K biochemical potency assay (Assay c), PIK3Cγ
Procedure: Assay c): PI3K Biochemical Potency
as §1

mTOR = mTOR (Homo sapiens (Human), UniProt P42345); assay: mTOR biochemical potency assay (Assay d)
Procedure: Assay d): mTOR Biochemical Potency
Solution of mTOR enzymes (Millipore, Cat. No. 14-770) was prepared in 1× kinase buffer at 4-fold of the final concentration (final concentration: 6 nM) in the assay. 2.5 μl of kinase solution was added to each well of the 384-well assay plate, which contains 2.5 μl of compounds with serially diluted concentration. 2× substrate solution was prepared with ULight-4E-BP1 (Thr37/46) Peptide (PE, Cat. No. TRF0128-M) and ATP in 1× kinase reaction buffer at 2-fold of the final concentration of each reagent in the assay. 5 μl of substrate solution was added to each well of the assay plate to start reaction. The assay plate was incubated at room temperature for 30 minutes. Detection solution of kinase quench buffer (EDTA) and Eu-anti-phospho-4E-BP1 antibody (Thr37/46) (PE, Cat. No. TRF0216-M) were prepared at 2-fold the desired final concentrations of each reagent in Lance detection buffer. 10 μl of detection solution buffer was added to each well of the assay plate.

PI3Kα (p110α/p85a) = PI3Kα (p110α/p85a) (Homo sapiens (Human), UniProt P42336); assay: PI3K biochemical potency assay (Assay c), PI3Kα
Procedure: Assay c): PI3K Biochemical Potency
as §1

PIK3Cδ = PIK3Cδ (Homo sapiens (Human), UniProt O00329); assay: PI3K biochemical potency assay (Assay c), PIK3Cδ
Sequence of PIK3Cδ (O00329 whole entry, looked up): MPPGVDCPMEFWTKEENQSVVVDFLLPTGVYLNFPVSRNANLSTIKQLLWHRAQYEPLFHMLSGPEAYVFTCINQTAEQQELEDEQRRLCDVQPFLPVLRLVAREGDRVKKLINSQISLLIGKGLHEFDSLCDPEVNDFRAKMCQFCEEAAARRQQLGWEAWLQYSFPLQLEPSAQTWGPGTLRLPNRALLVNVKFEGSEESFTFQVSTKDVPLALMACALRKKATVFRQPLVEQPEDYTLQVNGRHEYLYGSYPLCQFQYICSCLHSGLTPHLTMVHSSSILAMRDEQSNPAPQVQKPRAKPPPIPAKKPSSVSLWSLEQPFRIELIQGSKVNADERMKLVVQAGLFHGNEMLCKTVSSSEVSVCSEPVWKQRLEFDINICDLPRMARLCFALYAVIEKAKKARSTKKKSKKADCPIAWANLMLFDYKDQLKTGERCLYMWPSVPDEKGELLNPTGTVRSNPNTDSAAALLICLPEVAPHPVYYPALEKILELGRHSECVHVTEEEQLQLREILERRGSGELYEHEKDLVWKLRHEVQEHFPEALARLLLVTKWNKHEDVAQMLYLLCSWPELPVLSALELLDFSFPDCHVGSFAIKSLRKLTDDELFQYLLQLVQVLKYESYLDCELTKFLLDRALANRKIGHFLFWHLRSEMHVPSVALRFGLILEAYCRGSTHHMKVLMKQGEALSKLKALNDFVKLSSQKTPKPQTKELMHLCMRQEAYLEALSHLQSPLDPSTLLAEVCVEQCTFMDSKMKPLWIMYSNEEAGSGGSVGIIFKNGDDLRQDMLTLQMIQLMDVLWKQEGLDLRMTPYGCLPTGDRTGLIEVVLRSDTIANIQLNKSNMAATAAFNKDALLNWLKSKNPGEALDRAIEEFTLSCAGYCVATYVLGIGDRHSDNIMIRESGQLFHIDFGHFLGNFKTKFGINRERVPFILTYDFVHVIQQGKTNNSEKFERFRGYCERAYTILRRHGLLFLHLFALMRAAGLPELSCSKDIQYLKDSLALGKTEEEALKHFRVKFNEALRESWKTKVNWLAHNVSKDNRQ
Sequence of PIK3Cδ (P27986 whole entry partner, looked up): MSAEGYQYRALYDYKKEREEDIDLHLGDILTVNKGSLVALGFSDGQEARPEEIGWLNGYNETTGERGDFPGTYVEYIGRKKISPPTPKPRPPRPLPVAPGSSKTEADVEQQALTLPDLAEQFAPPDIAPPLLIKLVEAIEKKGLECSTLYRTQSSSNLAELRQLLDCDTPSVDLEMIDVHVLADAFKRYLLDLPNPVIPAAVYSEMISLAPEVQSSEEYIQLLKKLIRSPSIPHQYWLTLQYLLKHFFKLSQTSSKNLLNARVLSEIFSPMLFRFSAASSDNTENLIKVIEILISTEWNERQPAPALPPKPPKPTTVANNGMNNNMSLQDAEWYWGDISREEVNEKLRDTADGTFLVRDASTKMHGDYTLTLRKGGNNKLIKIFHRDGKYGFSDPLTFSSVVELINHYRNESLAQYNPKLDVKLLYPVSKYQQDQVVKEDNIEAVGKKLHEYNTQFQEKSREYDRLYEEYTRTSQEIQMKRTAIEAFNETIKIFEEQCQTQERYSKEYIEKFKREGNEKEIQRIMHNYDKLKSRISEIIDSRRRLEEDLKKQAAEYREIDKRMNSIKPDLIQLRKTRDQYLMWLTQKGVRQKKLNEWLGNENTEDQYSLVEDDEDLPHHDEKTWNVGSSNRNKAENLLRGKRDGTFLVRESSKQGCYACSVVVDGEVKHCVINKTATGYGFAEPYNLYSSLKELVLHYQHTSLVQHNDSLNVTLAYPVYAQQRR
Procedure: Assay c): PI3K Biochemical Potency
as §1

[3] = total IR 30 Gy (3 cycles), 50 mg/kg PO. TID
[4] = total IR 30 Gy (3 cycles), 150 mg/kg PO. TID
[5] = MCF7, read-out: Etoposide MCF-7 cellular IC50
[6] = HT-29 cells, SN-38, read-out: SN-38 HT-29 cellular IC50
[7] = MCF7, MCF-7 cells, etoposide, read-out: Etoposide MCF-7 cellular IC50

CC(C)n1c(=O)n(C)c2nnc3ccc(-c4ccc(COCCN5CC6CC6C5)nc4)cc3c21 (centres unmarked) [Example 1, 8-(6-((2-(3-azabicyclo[3.1.0]hexan-3-yl)ethoxy)methyl)pyridin-3-yl)-1-isopropyl-3-methyl-1H-imidazo[4,5-c]cinnolin-2(3H)-one]
Inhibition (% TGI) Combo (FaDu xenograft; [3]): 76.8 ± 2.72 % TGI | Inhibition (% TGI) Combo (FaDu xenograft; [4]): 92.0 ± 1.31 % TGI | IC50 (ATM): 16 nM | IC50 [1, 5]: 40 nM

CC(C)n1c(=O)n(C)c2nnc3ccc(-c4ccc(COCCN5CCC(F)CC5)nc4)cc3c21 [Example 5, 8-(6-((2-(4-fluropiperidin-1-yl)ethoxy)methyl)pyridin-3-yl)-1-isopropyl-3-methyl-1H-imidazo[4,5-c]cinnolin-2(3H)-one]
Inhibition (% TGI) Combo (FaDu xenograft; [3]): 79.6 ± 2.78 % TGI | Inhibition (% TGI) Combo (FaDu xenograft; [4]): 91.9 ± 1.16 % TGI | IC50 (ATM): 14 nM | IC50 [2, 6]: 130 nM | IC50 [1, 7]: 27 nM

CC(C)n1c(=O)n(C)c2nnc3ccc(-c4ccc(COCCN5CCC(C)(C)C5)nc4)cc3c21 [Example 36, 8-(6-((2-(3,3-dimethylpyrrolidin-1-yl)ethoxy)methyl)pyridin-3-yl)-1-isopropyl-3-methyl-1H-imidazo[4,5-c]cinnolin-2(3H)-one]
IC50 (ATM): 4.7 nM | IC50 [2, 6]: 20 nM | IC50 [1, 5]: 20 nM

CC(C)n1c(=O)n(C)c2nnc3ccc(-c4ccc([C@@H](C)OCCN5CCC6(CC6)C5)nc4)cc3c21 [Example 53, (R)-8-(6-(1-(2-(5-azaspiro[2.4]heptan-5-yl)ethoxy)ethyl)pyridin-3-yl)-1-isopropyl-3-methyl-1H-imidazo[4,5-c]cinnolin-2(3H)-one]
IC50 (ATR): > 10000 nM | IC50 (PIK3Cβ (p110β)): > 10000 nM | IC50 (ATM): 4.2 nM | IC50 (PIK3Cγ (pp110γ)): > 10000 nM | IC50 (mTOR): > 10000 nM | IC50 [2, 6]: 11 nM | IC50 (PI3Kα (p110α/p85a)): > 10000 nM | IC50 (PIK3Cδ): > 10000 nM | IC50 [1, 7]: 9 nM

CO[C@@H]1CCN(CCO[C@H](C)c2ccc(-c3ccc4nnc5c(c4c3)n(C(C)C)c(=O)n5C)cn2)C1 [Example 57, 1-isopropyl-8-(6-((R)-1-(2-((R)-3-methoxypyrrolidin-1-yl)ethoxy)ethyl)pyridin-3-yl)-3-methyl-1H-imidazo[4,5-c]cinnolin-2(3H)-one]
IC50 (ATM): 4.2 nM | IC50 [2, 6]: 19 nM | IC50 [1, 7]: 20 nM

CC(C)n1c(=O)n(C)c2nnc3ccc(-c4ccc([C@@H](C)OCCN5CCCC5)nc4)cc3c21 [Example 62, (R)-1-isopropyl-3-methyl-8-(6-(1-(2-(pyrrolidin-1-yl)ethoxy)ethyl)pyridin-3-yl)-1,3-dihydro-2H-imidazo[4,5-c]cinnolin-2-one]
IC50 (ATR): > 10000 nM | tumor response in FaDu xenograft efficacy study (FaDu xenograft): tumor xenograft regression was observed and tumors did not relapse until the end of the study | Inhibition (% TGI) Combo (FaDu xenograft; total IR 30 Gy (3 cycles), 45 mg/kg PO. BID): 98.7 ± 0.51 % TGI | Inhibition (% TGI) Combo (FaDu xenograft; total IR 60 Gy (6 cycles), 10 mg/kg PO. BID): 80.4 ± 2.20 % TGI | Inhibition (% TGI) Combo (FaDu xenograft; total IR 60 Gy (6 cycles), 30 mg/kg PO. BID): 93.6 ± 1.33 % TGI | IC50 (ATM): 7.8 nM | IC50 (mTOR; read-out: mTor IC50): > 10000 nM | IC50 [2]: 21 nM

CC(C)n1c(=O)n(C)c2nnc3ccc(-c4ccc([C@@H](C)OCCN5CCC(F)CC5)nc4)cc3c21 [Example 69, (R)-8-(6-(1-(2-(4-fluoropiperidin-1-yl)ethoxy)ethyl)pyridin-3-yl)-1-isopropyl-3-methyl-1H-imidazo[4,5-c]cinnolin-2(3H)-one]
IC50 (ATM): 5.2 nM | IC50 [2, 6]: 47 nM | IC50 [1, 7]: 34 nM

CC(C)n1c(=O)n(C)c2nnc3ccc(-c4ccc([C@@H](C)OCCN5CCC(C)(C)CC5)nc4)cc3c21 [Example 73, (R)-8-(6-(1-(2-(4,4-dimethylpiperidin-1-yl)ethoxy)ethyl)pyridin-3-yl)-1-isopropyl-3-methyl-1H-imidazo[4,5-c]cinnolin-2(3H)-one]
IC50 (ATM): 3.5 nM | IC50 [2, 6]: 9.1 nM | IC50 [1, 5]: 9.1 nM

C[C@@H](OCCN1CCC2(CC2)C1)c1ccc(-c2ccc3nnc4c(c3c2)n(C2CCOCC2)c(=O)n4C)cn1 [Example 102, (R)-8-(6-(1-(2-(5-azaspiro[2.4]heptan-5-yl)ethoxy)ethyl)pyridin-3-yl)-3-methyl-1-(tetrahydro-2H-pyran-4-yl)-1H-imidazo[4,5-c]cinnolin-2(3H)-one]
IC50 (ATR): > 10000 nM | IC50 (PIK3Cβ (p110β)): > 10000 nM | tumor response in FaDu xenograft efficacy study (FaDu xenograft): tumor xenograft regression was observed and tumors did not relapse until the end of the study | IC50 (PIK3Cγ (pp110γ)): > 10000 nM | IC50 (mTOR): > 10000 nM | IC50 (PI3Kα (p110α/p85a)): > 10000 nM | IC50 (PIK3Cδ): > 10000 nM

C[C@@H](OCCN1CCC2(CC1)CC2)c1ccc(-c2ccc3nnc4c(c3c2)n(C2CCOCC2)c(=O)n4C)cn1 [Example 107, (R)-8-(6-(1-(2-(6-azaspiro[2.5]octan-6-yl)ethoxy)ethyl)pyridin-3-yl)-3-methyl-1-(tetrahydro-2H-pyran-4-yl)-1H-imidazo[4,5-c]cinnolin-2(3H)-one]
IC50 (ATR): > 10000 nM | IC50 (mTOR; read-out: mTor IC50): > 10000 nM | IC50 [1, 5]: 12 nM

CO[C@@H]1CCN(CCO[C@H](C)c2ccc(-c3ccc4nnc5c(c4c3)n(C3CCOCC3)c(=O)n5C)cn2)C1 [Example 112, 8-(6-((R)-1-(2-((R)-3-methoxypyrrolidin-1-yl)ethoxy)ethyl)pyridin-3-yl)-3-methyl-1-(tetrahydro-2H-pyran-4-yl)-1H-imidazo[4,5-c]cinnolin-2(3H)-one]
IC50 (ATR): > 10000 nM | Inhibition (% TGI) Combo (FaDu xenograft; total IR 40 Gy (4 cycles), 30 mg/kg PO. BID): 77.3 ± 1.67 % TGI | Inhibition (% TGI) Combo (FaDu xenograft; total IR 40 Gy (4 cycles), 60 mg/kg PO. BID): 79.6 ± 4.20 % TGI | Inhibition (% TGI) Combo (FaDu xenograft; total IR 40 Gy (4 cycles), 100 mg/kg PO. BID): 82.9 ± 1.77 % TGI | IC50 (ATM): 7.8 nM | IC50 (mTOR; read-out: mTor IC50): > 10000 nM | IC50 [2]: 18 nM | IC50 [1, 7]: 20 nM

CO[C@H]1C[C@@H](n2c(=O)n(C)c3nnc4ccc(-c5ccc(COCCN6CC7CC7C6)nc5)cc4c32)C1 (stereo partly drawn) [Example 175, 8-(6-((2-(3-azabicyclo[3.1.0]hexan-3-yl)ethoxy)methyl)pyridin-3-yl)-1-(cis-3-methoxycyclobutyl)-3-methyl-1H-imidazo[4,5-c]cinnolin-2(3H)-one]
IC50 (ATM): 25 nM | IC50 [2, 6]: 170 nM | IC50 [1, 7]: 33 nM
